Source: ChEMBL document CHEMBL3301361, “Experimental in vitro DMPK and physicochemical data on a set of publicly disclosed compounds”

Assay: physchem
Settings: octan-1-ol/water, pH 7.4

Compared with `O=C(O)c1cn(C2CC2)c2cc(=[N+]3CCN(C(=O)CC[N+](=O)[O-])CC3)c(F)cc-2c1[O-]`, `Cc1cc(O[C@H]2C[C@H]3CC[C@@H](C2)N3Cc2ccccc2)cc(C(N)=O)c1` is higher in logD: 0.22 for the first, 2.08 for the second.

First: CC(=O)NC1CC2CCCC(C1)N2C(=O)Nc1ccc(Cl)c(C(F)(F)F)c1 (configuration not stated)
Second: NC(=O)c1cccc(C[C@@H]2C[C@H]3CC[C@@H](C2)N3Cc2ccccc2)c1
The logD of the first is higher: 2.79 for the first, 1.11 for the second.

First: Oc1ccc2c3c1O[C@H]1c4[nH]c5ccccc5c4C[C@@]4(O)[C@@H](C2)N(CC2CC2)CC[C@]314 [NALTRINDOLE]
Second: CCOC(=O)C1(c2cccc(O)c2)CCCN(CC2CC2)C1 (configuration not stated)
The logD of the first is higher: 2.7 for the first, 1.89 for the second.

`COc1ccc(-n2cnc3cc(NS(=O)(=O)c4ccccc4)ccc32)cc1` and `CN1Cc2ccccc2C(c2ccc(Cl)cc2)C1` (configuration not stated) are within 0.2 log units of each other in logD: 3.7 for the first, 3.64 for the second.

`NC(=O)C[S+]([O-])C(c1ccccc1)c1ccccc1` (configuration not stated) [MODAFINIL] and `NC(=NCc1ccc(Cl)cc1)SCCCc1cnc[nH]1` [CLOBENPROPIT] are within 0.2 log units of each other in logD: 1.12 for the first, 1.13 for the second.

Compared with `C=CCC1(CC(C)C)C(=O)NC(=O)NC1=O` [BUTALBITAL], `C1CCC(NC2CCCCC2)CC1` is lower in logD: 1.48 for the first, -0.38 for the second.

Same assay, conditions: octan-1-ol/water, pH 7.4, LogD7.4

Compared with `Cc1ccc(NC(=O)c2cccc(N(C)C)c2)cc1NC(=O)c1ccc(O)cc1`, `Cc1ccc(NC(=O)c2cccc(N(C)C)c2)cc1NC(=O)c1ccc(OC(C)C)cc1` is higher in logD: 2.65 for the first, 3.1 for the second.

Going from `COc1ccccc1OCC(O)CO` (configuration not stated) [GUAIFENESIN] to `COc1ccccc1Oc1ccc(N(Cc2cccnc2)S(=O)(=O)CC(F)(F)F)cc1`, the logD rises from 0.24 to 1.5.

Going from `CN(C)c1cccc2c(S(=O)(=O)Nc3cnccn3)cccc12` to `O=S(=O)(Nc1cccnc1)c1cccs1`, the logD falls from 0.9 to 0.54.

First: COc1cc2c(Nc3ccc(Cl)cc3F)ncnc2cc1OCCn1cncn1
Second: COc1cc2c(Nc3ccc(Cl)cc3F)ncnc2cc1OCC1CCNCC1
The logD of the first is higher: 3.2 for the first, 1.1 for the second.

Going from `COc1ccc(Cl)c(C(=O)NCC23CC4CC(CC(C4)C2)C3)c1` to `C[C@H]1O[C@@H](n2cnc3c(N)nc(OCC45CC6CC(CC(C6)C4)C5)nc32)[C@H](O)[C@@H]1O`, the logD falls from 4.39 to 3.58.

Compared with `Nc1cc(-c2ccccc2)nc2ccccc12`, `c1ccc(-c2ccc3ccccc3n2)cc1` [2-PHENYLQUINOLINE] is higher in logD: 2.2 for the first, 4 for the second.

Compared with `O=S(=O)(c1ccccc1-c1ccc(CNC2CCOCC2)cc1)N1CCCC1`, `O=C1Nc2ccc(S(=O)(=O)N3CCC[C@H]3CNc3ccccc3)cc2C1=O` is higher in logD: 1.4 for the first, 2.4 for the second.

Going from `CN[C@@H](C)C(=O)N[C@H](C(=O)N[C@H]1CCCN(CCCc2ccccc2)C1)C1CCCCC1` to `CN[C@@H](C)C(=O)N[C@H](C(=O)N[C@H]1CCCN(CCc2cccc(OC)c2)C1)C(C)(C)C`, the logD falls from 2.6 to 1.47.

Compared with `COc1cc2c(N3CCN(C(=O)Nc4ccc(OC(C)C)cc4)CC3)ncnc2cc1OCCCN1CCCCC1` [TANDUTINIB], `CC(C)NC[C@@H](C(=O)N1CCN(c2ncnc3c2[C@H](C)C[C@H]3O)CC1)c1ccc(Cl)cc1` [IPATASERTIB] is lower in logD: 2.6 for the first, 1.3 for the second.

First: Cc1cn([C@H]2CCCN(S(=O)(=O)c3ccc(C(=O)O)c(Oc4ccc(Cl)c(Cl)c4)c3)C2)c(=O)[nH]c1=O
Second: Cc1cn(C2CCCN(Cc3cccc(Oc4ccccc4)c3)C2)c(=O)[nH]c1=O (configuration not stated)
The logD of the first is lower: -0.87 for the first, 3.04 for the second.

Compared with `COc1ccc(C(=O)Nc2cc(NC(=O)c3cccc(N(C)C)c3)ccc2Br)cc1OC`, `CCN(CC)CCOc1ccc(N(C)C(=O)c2ccc(-c3ccc(C(F)(F)F)cc3)cc2)cc1OC` is lower in logD: 3.49 for the first, 3.13 for the second.

Compared with `C/N=C(\S)n1nc(-c2ccc(Cl)cc2)nc1N`, `Clc1ccc(C2=CSC3=NCCN23)cc1Cl` is lower in logD: 4.12 for the first, 1.54 for the second.

Compared with `CCN(C(=O)Nc1ccccc1)c1ccccc1`, `Nc1nc2ccccc2n1C(=O)c1ccccc1` is lower in logD: 3.1 for the first, 1.56 for the second.

Compared with `CCS(=O)(=O)c1ccc(-c2cc(C(F)(F)F)ccc2O[C@H](C)C(=O)O)c(C)c1`, `CC(C)C(NC(=O)Cn1c(-c2ccccc2)ccc(NS(N)(=O)=O)c1=O)C(=O)C(F)(F)F` (configuration not stated) is higher in logD: -0.4 for the first, 1.17 for the second.

Going from `CN(c1ccccc1)c1ccnc(Nc2cc(N3CCOCC3)cc(N3CCOCC3)c2)n1` to `Cc1ccc(NC(=O)c2ccnc(N3CCOCC3)c2)cc1Nc1ccnc(OC2CCN(C)CC2)n1`, the logD falls from 3.47 to 1.8.

First: CSc1ncccc1C(=O)NCC1CCCCC1
Second: CCCSc1ncccc1C(=O)N[C@@H]1[C@@H]2CC3C[C@H]1C[C@@](O)(C3)C2
The logD of the first is higher: 2.93 for the first, 2.27 for the second.

Compared with `NC(=O)c1cccnc1Oc1ccccc1`, `c1ccc2c(c1)nnn2-c1ccncc1` is higher in logD: 1.13 for the first, 1.69 for the second.

First: CC(C)C(NC(=O)Cn1c(-c2ccccc2)ccc(NC(=O)OCc2ccc(C(=O)O)cc2)c1=O)C(=O)C(F)(F)F (configuration not stated)
Second: Cc1cc(COC(=O)Nc2ccc(-c3ccccc3)n(CC(=O)NC(C(=O)C(F)(F)F)C(C)C)c2=O)cc(C)n1 (configuration not stated)
The logD of the first is lower: 0.84 for the first, 2.38 for the second.

First: CC(=O)NCC(NC(=O)C1(N)CCN(c2ncnc3[nH]ccc23)CC1)c1ccc(Cl)cc1 (configuration not stated)
Second: Cc1[nH]c2nc(NCc3ccc(Cl)cc3)nn2c(=O)c1Cc1ccccc1
The logD of the first is lower: 2.4 for the first, 3.7 for the second.

First: Nc1ncnc2ccccc12 [4-AMINOQUINAZOLINE]
Second: c1ccc2[nH]c(-c3cscn3)nc2c1 [THIABENDAZOLE]
The logD of the first is lower: 1.26 for the first, 2.35 for the second.

Going from `O=C1NC(=O)c2cc(OCc3ccccc3)ccc21` to `CS(=O)(=O)N1CCOc2cc(COc3ccccc3)cnc21`, the logD falls from 3.1 to 2.4.

Going from `Cc1cc2nc(NC(=N)N)nc(C)c2cc1C` to `Cc1nc(N)c2nc(O)n(Cc3ccccc3)c2n1`, the logD rises from 0.7 to 2.04.

Going from `NC(=O)c1ccc(=O)n(Cc2ccc(F)c(F)c2)c1` to `N[C@@H](Cc1ccc(F)cc1)C(=O)O`, the logD falls from 1.37 to -1.06.

First: CCN1CCC[C@H](CN2CCN(C(=O)Nc3ccc(Cl)c(Cl)c3)CC2)C1
Second: O=C(Nc1ccc(C(F)(F)F)c(Cl)c1)N1CCN(C[C@@H]2CCCN(C3CC3)C2)CC1
The logD of the first is lower: 1.86 for the first, 4.06 for the second.

First: COc1cc(C(=O)NS(=O)(=O)c2ccccc2)ccc1Cn1ccc2ccc(C(=O)NCC3CCCC3)cc21
Second: COc1ccc(C(=O)NCc2cccnc2)cc1C(=O)NCc1cccnc1 [PICOTAMIDE]
The logD of the first is higher: 1.93 for the first, 1.23 for the second.

Compared with `CC1CC(CN)CC(CO)C1` (configuration not stated), `Cc1ccc(-c2ccc(S(=O)(=O)N3CCC[C@H]3C(=O)N3CC[C@@H](N)C3)cc2F)o1` is higher in logD: -1.4 for the first, 1.2 for the second.

First: O=C(O)c1ccc2c(c1)nc(Nc1cccc(Cl)c1)c1ccncc12 [SILMITASERTIB]
Second: Cc1nc2nc(NC(=O)c3ccc(F)cc3)nn2c(O)c1Cc1ccccc1
The logD of the first is lower: 1.29 for the first, 2.2 for the second.

Going from `CC[S+]([O-])c1ncccc1C1(O)CCN(CC23CC(c4ccccc42)c2ccccc23)CC1` (configuration not stated) to `CC[C@H](NC(=O)c1c([S+](C)[O-])c(-c2ccccc2)nc2cc(CN(C)C)ccc12)c1ccccc1` (some centres not stated), the logD rises from 2 to 2.75.

First: Cc1ncc(-c2ccnc(Nc3ccc(C#N)cc3)n2)n1C(C)C
Second: Cc1ncc(-c2nc(Nc3ccc(C(=O)N(C)C)cc3)ncc2F)n1C(C)C
The logD of the first is higher: 3.62 for the first, 2.77 for the second.

Compared with `C[C@@H]1CN(C(=O)OCC(F)(F)F)CCN1c1ncc(OCc2ccncc2C#N)cn1`, `CC(C)(C)OC(=O)N1CCN(c2ncc(OCc3ccc(S(C)(=O)=O)cc3)cn2)CC1` is higher in logD: 3 for the first, 3.27 for the second.

Going from `CN1CCOc2cc(COc3ccccc3)cnc21` to `Cn1c(N)nc(CCc2cccc(-c3ccccc3)c2)cc1=O`, the logD rises from 3.3 to 3.8.

Compared with `O=C(N[C@@H](Cc1ccc(N2CCN(c3ccccc3)CC2)cc1)C(=O)O)c1c(Cl)cccc1Cl`, `CCC(NC(=O)c1ccc(C)cc1)c1nc2ccsc2c(=O)n1Cc1ccccc1` (configuration not stated) is higher in logD: 0.08 for the first, 4.14 for the second.

Going from `O=C(N[C@H]1Cc2ccccc2N(C[C@@H](O)CO)C1=O)c1cc2cc(Cl)sc2[nH]1` to `O=C(O)CC[C@@H]1c2ccccc2C[C@H]1NC(=O)c1cc2sc(Cl)c(Cl)c2[nH]1`, the logD falls from 3.3 to 2.84.

Compared with `C[C@@H]1CN(c2nc(N3CCOC[C@@H]3C)c3ccc(-c4ccccc4)nc3n2)C[C@H](C)O1`, `CN(CC[C@@H](Oc1ccc(-c2ccccc2)cc1)c1ccc(F)cc1)CC(=O)O` is lower in logD: 3.75 for the first, 2.86 for the second.

Going from `O=c1oc2cc(O)ccc2cc1-c1ccc(O)cc1` to `NC(=O)c1cc(O)cc2nc(-c3ccc(O)cc3)oc12`, the logD falls from 2.9 to 2.3.

First: CCN(CC)CCOC(=O)c1ccc(N)cc1 [PROCAINE]
Second: CCN(CC)CCOCCOC(=O)C1(c2ccccc2)CCCC1 [CARBETAPENTANE]
The logD of the first is lower: 0 for the first, 1.33 for the second.

Compared with `N#Cc1ccccc1Oc1ccc(C(=O)NCc2ccncc2)cc1`, `Oc1ccc(-c2csc(-c3ccc(O)cc3)n2)cc1` is higher in logD: 2.57 for the first, 3.7 for the second.

Compared with `NC(=O)Nc1cc(-c2cccc(O)c2)sc1C(N)=O`, `O=C(C(=O)c1cc(Br)ccc1O)c1cc(Br)ccc1O` is higher in logD: 2.21 for the first, 3.85 for the second.

First: COc1cc(/C=C2/SC(=O)NC2=O)cc(OC)c1O
Second: COc1ccc(CCN2CN=C(SCc3ccc(Cl)cc3)NC2)cc1OC
The logD of the first is lower: 0.74 for the first, 2.41 for the second.

First: NC(Cc1cc(I)c(Oc2ccc(O)c(I)c2)c(I)c1)C(=O)O (configuration not stated) [RATHYRONINE]
Second: CCCC(=O)NCc1cncc(-c2ccc(F)cc2OC)c1
The logD of the first is lower: 0.97 for the first, 2.9 for the second.

First: COc1ccc(CN2C(=O)CCC2(C)C(=O)NC2CCCCC2)c(OC)c1 (configuration not stated)
Second: O=C(O)COc1ccc(Cl)cc1C1CCCCC1
The logD of the first is higher: 2.38 for the first, 0.93 for the second.

Compared with `O=CN1CC=C(c2c(F)cc(N3C[C@H](COc4ccon4)OC3=O)cc2F)CC1`, `Oc1ccc2[nH]c(CN3CCC(Cc4ccc(F)cc4)CC3)nc2c1` is higher in logD: 2.01 for the first, 3.8 for the second.

`CCO/N=C(\c1ccc(Br)cc1)C1CCN(C2(C)CCN(C(=O)c3c(C)cc[n+]([O-])c3C)CC2)CC1` [ANCRIVIROC] and `Cc1ccc(S(=O)(=O)N2CCN(C(=O)c3ccco3)CC2)cc1` are within 0.2 log units of each other in logD: 2.14 for the first, 2.17 for the second.

Going from `C[C@@](O)(C(=O)Nc1ccc(S(=O)(=O)NCCCO)cc1Cl)C(F)(F)F` to `CC(C)C[C@@H](CO)NS(=O)(=O)c1ccc(Cl)s1`, the logD rises from 2.1 to 2.8.

Compared with `Nc1nc(N)c2nc(CO)cnc2n1`, `Cc1cc2n[nH]c(=O)n2c2cc(-c3ccc(CO)cc3)ccc12` is higher in logD: -0.45 for the first, 2.86 for the second.

First: C#CCn1c(=O)c2c(-c3cc(C#N)cn3C)n(Cc3ccnc4ccc(Cl)cc34)nc2n(CC2CC2)c1=O
Second: Fc1ccc(-c2ncn(C3CCNCC3)c2-c2ccncc2)cc1 [VK-19911]
The logD of the first is higher: 3.96 for the first, 0.3 for the second.

First: CC(C)C(NC(=O)Cn1c(-c2ccccc2)ccc(NC(=O)NCc2ccccn2)c1=O)C(=O)C(F)(F)F (configuration not stated)
Second: Cn1sc(NC(=O)c2ccccc2)nc1=O
The logD of the first is higher: 2.15 for the first, 1.13 for the second.

For `O=C(Nc1cccc(Cl)c1)N1CCN(C[C@@H]2CCCN(C3CC3)C2)CC1`, the logD was 2.74.
